The values below come from patent US11380440B1, “Marker screening and signal detection” (Cerner Innovation, Inc., priority 2011, dated 2022).

The test system of the data set is patients admitted to hospital with AMI.

Molecules are shown by their SMILES.

For the compound `O=C(O)c1cn(C2CC2)c2cc(N3CCNCC3)c(F)cc2c1=O` [Ciprofloxacin], under “386 exposed patients of the 6,699 cohort (FIG. 4A column 415)”, the “actual number of deaths” value was found to be 129. Also, the “expected number of deaths” value (Monte Carlo simulation, 2,000 burn-in and 50,000 iterations (FIG. 4A column 420)) was 28.3.

`CC(C)c1c(C(=O)Nc2ccccc2)c(-c2ccccc2)c(-c2ccc(F)cc2)n1CC[C@@H](O)C[C@@H](O)CC(=O)O` [atorvastatin]: where the note is “Table 500 column 520, cohort of 6,699 AMI inpatients, 5.7% of the cohort died”, the “in-house mortality percentage (count of deaths from the number receiving exposure)” value turned out to be 3.4%.
